Source: patent US20110071180A1, “SUB-TYPE SELECTIVE AMIDES OF DIAZABICYCLOALKANES” (Targacept, Inc., priority 2008, published 2011)

molecular target: T1, rat α4β2 nAChR subtype (Rattus norvegicus, UniProt P09483+P12390); test: Radioligand binding, [3H]nicotine, rat cortex membranes; details: [3H]nicotine 5 nM
T1 construct: The cerebral cortex was removed and placed in 20 volumes (weight:volume) of ice-cold preparative buffer; from tissue; host or cells: rat cerebral cortex membranes (female Sprague-Dawley)
T1 sequence (P09483 31-630): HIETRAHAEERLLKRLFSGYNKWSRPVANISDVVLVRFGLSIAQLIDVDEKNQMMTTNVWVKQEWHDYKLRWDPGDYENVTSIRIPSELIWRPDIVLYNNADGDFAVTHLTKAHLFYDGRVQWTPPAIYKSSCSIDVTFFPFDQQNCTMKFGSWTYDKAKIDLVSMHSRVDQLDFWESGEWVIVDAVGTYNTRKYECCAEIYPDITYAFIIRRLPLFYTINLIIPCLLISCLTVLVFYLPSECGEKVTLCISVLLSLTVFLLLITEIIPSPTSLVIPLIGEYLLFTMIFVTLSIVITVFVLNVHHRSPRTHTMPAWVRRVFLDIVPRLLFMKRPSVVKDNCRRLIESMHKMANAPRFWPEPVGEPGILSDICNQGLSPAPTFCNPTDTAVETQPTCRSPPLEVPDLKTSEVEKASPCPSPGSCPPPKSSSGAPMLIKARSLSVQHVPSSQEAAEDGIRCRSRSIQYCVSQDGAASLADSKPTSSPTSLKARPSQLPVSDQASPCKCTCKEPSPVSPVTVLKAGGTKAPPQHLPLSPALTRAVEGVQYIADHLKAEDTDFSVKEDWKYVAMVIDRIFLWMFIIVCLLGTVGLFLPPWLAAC
T1 sequence (P12390 25-500): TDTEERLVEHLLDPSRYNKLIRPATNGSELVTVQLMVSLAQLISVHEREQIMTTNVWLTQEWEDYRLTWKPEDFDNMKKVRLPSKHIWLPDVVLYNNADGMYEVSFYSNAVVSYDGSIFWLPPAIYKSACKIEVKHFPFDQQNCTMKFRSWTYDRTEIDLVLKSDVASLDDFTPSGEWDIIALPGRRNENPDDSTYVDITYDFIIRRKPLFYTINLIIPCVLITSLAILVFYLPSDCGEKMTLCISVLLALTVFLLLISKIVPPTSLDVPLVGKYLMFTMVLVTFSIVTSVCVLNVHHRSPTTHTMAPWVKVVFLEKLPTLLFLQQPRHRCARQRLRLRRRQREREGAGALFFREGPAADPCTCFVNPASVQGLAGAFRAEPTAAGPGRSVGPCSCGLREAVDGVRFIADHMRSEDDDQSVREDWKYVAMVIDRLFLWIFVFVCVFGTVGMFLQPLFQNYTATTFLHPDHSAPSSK
Experimental: Preparation of Membranes from Rat Cortex: Rats (Female, Sprague-Dawley), weighing 150-250 g, were maintained on a 12 h light/dark cycle and were allowed free access to water and food supplied by PMI Nutrition International, Inc. Animals were anesthetized with 70% CO2, and then decapitated. Brains were removed and placed on an ice-cold platform. The cerebral cortex was removed and placed in 20 volumes (weight:volume) of ice-cold preparative buffer (137 mM NaCl, 10.7 mM KCl, 5.8 mM KH2PO4, 8 mM Na2HPO4, 20 mM HEPES (free acid), 5 mM iodoacetamide, 1.6 mM EDTA, pH 7.4); PMSF, dissolved in methanol to a final concentration of 100 μM, was added and the suspension was homogenized by Polytron. The homogenate was centrifuged at 18,000×g for 20 min at 4° C. and the resulting pellet was re-suspended in 20 volumes of ice-cold water. After 60 min incubation on ice, a new pellet was collected by centrifugation at 18,000×g for 20 min at 4° C. The final pellet was re-suspended in 10 volumes of buffer and stored at −20° C.
(§1) On the day of the assay, the frozen membranes were thawed and spun at 48,000×g for 20 min. The supernatant was decanted and discarded. The pellet was resuspended in Dulbecco's phosphate buffered saline (PBS, Life Technologies) pH 7.4 and homogenized with the Polytron for 6 seconds. Protein concentrations were determined using a Pierce BCA Protein Assay Kit, with bovine serum albumin as the standard (Pierce Chemical Company, Rockford, Ill.).
(§2) Membrane preparations (approximately 50 μg for human and 200-300 μg protein for rat α4β2) were incubated in PBS (50 μL and 100 μL respectively) in the presence of competitor compound (0.01 nM to 100 μM) and 5 nM [^3H]nicotine for 2-3 hours on ice. Incubation was terminated by rapid filtration on a multi-manifold tissue harvester (Brandel, Gaithersburg, Md.) using GF/B filters presoaked in 0.33% polyethyleneimine (w/v) to reduce non-specific binding. Tissue was rinsed 3 times in PBS, pH 7.4. Scintillation fluid was added to filters containing the washed tissue and allowed to equilibrate. Filters were then counted to determine radioactivity bound to the membranes by liquid scintillation counting (2200CA Tri-Carb LSC, Packard Instruments, 50% efficiency or Wallac Trilux 1450 MicroBeta, 40% efficiency, Perkin Elmer).
(§3) Data were expressed as disintegrations per minute (DPMs). Within each assay, each point had 2-3 replicates. The replicates for each point were averaged and plotted against the log of the drug concentration. IC50, which is the concentration of the compound that produces 50% inhibition of binding, was determined by least squares non-linear regression. Ki values were calculated using the Cheng-Prussof equation (1973): […]

Compound	Ki
O=C(N1CC2CNCC2C1)C1(O)CC1 (stereo not drawn) [Example 10-22]	0.445 µM
CC1(C)C(C(=O)N2CC3CNCC3C2)C1(C)C (stereo not drawn) [Example 10-23]	0.0491 µM
N#CC1(C(=O)N2CC3CNCC3C2)CC1 (stereo not drawn) [Example 10-24]	0.572 µM
O=C(C1CCC1)N1CC2CNCC2C1 (stereo not drawn) [Example 10-25]	0.0125 µM
O=C(C1CC12CCC2)N1CC2CNCC2C1 (stereo not drawn) [Example 10-26]	0.0063 µM
O=C(CO)N1CC2CNCC2C1 (stereo not drawn) [Example 10-27]	0.264 µM
O=C([C@H]1C[C@H]1F)N1CC2CNCC2C1 (stereo partly drawn) [Example 10-28]	0.01 µM
O=C([C@H]1C[C@@H]1F)N1CC2CNCC2C1 (stereo partly drawn) [Example 10-29]	0.0213 µM
O=C(CCF)N1CC2CNCC2C1 (stereo not drawn) [Example 10-30]	0.0224 µM
CC(C)C(=O)N1CC2CNCC2C1 (stereo not drawn) [Example 10-31]	0.056 µM
CC(C)(C)C(=O)N1CC2CNCC2C1 (stereo not drawn) [Example 10-32]	0.0158 µM
O=C(C1CC(F)C1)N1CC2CNCC2C1 (stereo not drawn) [Example 10-33]	0.0072 µM
O=C(CC1CC1)N1CC2CNCC2C1 (stereo not drawn) [Example 10-34]	0.0627 µM
CS(=O)(=O)CC(=O)N1CC2CNCC2C1 (stereo not drawn) [Example 10-35]	0.238 µM
O=C([C@H]1C[C@@H]1F)N1CC2CNCC2C1 (stereo partly drawn) [Example 10-36]	0.0343 µM
O=C([C@@H]1C[C@H]1F)N1CC2CNCC2C1 (stereo partly drawn) [Example 10-37]	0.0122 µM
O=C([C@H]1C[C@H]1F)N1CC2CNCC2C1 (stereo partly drawn) [Example 10-38]	0.0097 µM
O=C([C@@H]1C[C@@H]1F)N1CC2CNCC2C1 (stereo partly drawn) [Example 10-39]	0.0066 µM
CC(F)(F)C(=O)N1CC2CNCC2C1 (stereo not drawn) [Example 10-40]	0.0086 µM
CC(C)(F)C(=O)N1CC2CNCC2C1 (stereo not drawn) [Example 10-41]	0.012 µM

molecular target: T2, human α4β2 nAChR subtype (Homo sapiens, UniProt P17787+P43681); test: Radioligand binding, [3H]nicotine, membranes from SH-EP1/human α4β2 clonal cells; details: [3H]nicotine 5 nM, SH-EP1/human α4β2 cell membranes
T2 construct: expressed in transfected cells; host or cells: SH-EP1 clonal cells expressing human α4β2
T2 sequence (P43681 29-627 limits assumed): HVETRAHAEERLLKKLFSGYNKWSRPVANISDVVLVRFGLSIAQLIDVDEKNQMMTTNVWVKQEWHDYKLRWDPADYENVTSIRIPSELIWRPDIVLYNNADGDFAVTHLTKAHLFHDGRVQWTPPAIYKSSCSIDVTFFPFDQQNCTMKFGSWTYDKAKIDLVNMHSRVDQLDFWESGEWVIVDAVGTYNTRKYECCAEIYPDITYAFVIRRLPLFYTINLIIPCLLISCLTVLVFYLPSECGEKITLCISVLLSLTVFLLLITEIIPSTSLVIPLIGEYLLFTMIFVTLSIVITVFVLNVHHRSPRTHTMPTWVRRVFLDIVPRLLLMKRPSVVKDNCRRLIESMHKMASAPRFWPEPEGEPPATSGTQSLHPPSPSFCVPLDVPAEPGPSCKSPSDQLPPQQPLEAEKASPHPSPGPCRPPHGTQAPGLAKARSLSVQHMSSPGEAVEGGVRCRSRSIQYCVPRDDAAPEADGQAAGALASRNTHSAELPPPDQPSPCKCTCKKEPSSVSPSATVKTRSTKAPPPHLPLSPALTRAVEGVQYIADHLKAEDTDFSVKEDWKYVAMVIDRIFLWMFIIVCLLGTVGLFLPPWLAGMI
T2 sequence (P17787 26-502): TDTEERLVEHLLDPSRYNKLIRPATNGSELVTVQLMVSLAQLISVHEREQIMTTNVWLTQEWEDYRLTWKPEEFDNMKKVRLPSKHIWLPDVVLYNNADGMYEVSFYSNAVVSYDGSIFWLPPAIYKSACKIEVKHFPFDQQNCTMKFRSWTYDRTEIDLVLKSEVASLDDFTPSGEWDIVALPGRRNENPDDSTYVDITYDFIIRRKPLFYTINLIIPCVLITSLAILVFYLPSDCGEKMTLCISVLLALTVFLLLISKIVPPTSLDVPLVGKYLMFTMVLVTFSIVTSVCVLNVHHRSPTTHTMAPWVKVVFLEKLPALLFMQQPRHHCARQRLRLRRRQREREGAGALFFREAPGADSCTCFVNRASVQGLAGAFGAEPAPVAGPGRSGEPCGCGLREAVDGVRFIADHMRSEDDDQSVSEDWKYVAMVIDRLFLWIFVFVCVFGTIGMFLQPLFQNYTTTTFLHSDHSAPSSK
Experimental: Preparation of membranes from SH-EP1/human α4β2 clonal cells: Cell pellets from 40 150 mm culture dishes were pooled, and homogenized by Polytron (Kinematica GmbH, Switzerland) in 20 milliliters of ice-cold preparative buffer. The homogenate was centrifuged at 48,000 g for 20 minutes at 4° C. The resulting pellet was re-suspended in 20 mL of ice-cold preparative buffer and stored at −20° C.
as §1, §2, §3

Compound	Ki
O=C(N1CC2CNCC2C1)C1(O)CC1 (stereo not drawn) [Example 10-22]	0.343 µM
CC1(C)C(C(=O)N2CC3CNCC3C2)C1(C)C (stereo not drawn) [Example 10-23]	0.0164 µM
N#CC1(C(=O)N2CC3CNCC3C2)CC1 (stereo not drawn) [Example 10-24]	0.274 µM
O=C(C1CCC1)N1CC2CNCC2C1 (stereo not drawn) [Example 10-25]	0.0058 µM
O=C(C1CC12CCC2)N1CC2CNCC2C1 (stereo not drawn) [Example 10-26]	0.004 µM
O=C(CO)N1CC2CNCC2C1 (stereo not drawn) [Example 10-27]	0.202 µM
O=C([C@H]1C[C@H]1F)N1CC2CNCC2C1 (stereo partly drawn) [Example 10-28]	0.0029 µM
O=C([C@H]1C[C@@H]1F)N1CC2CNCC2C1 (stereo partly drawn) [Example 10-29]	0.0059 µM
O=C(CCF)N1CC2CNCC2C1 (stereo not drawn) [Example 10-30]	0.0148 µM
CC(C)C(=O)N1CC2CNCC2C1 (stereo not drawn) [Example 10-31]	0.0286 µM
CC(C)(C)C(=O)N1CC2CNCC2C1 (stereo not drawn) [Example 10-32]	0.0081 µM
O=C(C1CC(F)C1)N1CC2CNCC2C1 (stereo not drawn) [Example 10-33]	0.018 µM
O=C(CC1CC1)N1CC2CNCC2C1 (stereo not drawn) [Example 10-34]	0.105 µM
CS(=O)(=O)CC(=O)N1CC2CNCC2C1 (stereo not drawn) [Example 10-35]	0.345 µM
O=C([C@H]1C[C@@H]1F)N1CC2CNCC2C1 (stereo partly drawn) [Example 10-36]	0.0172 µM
O=C([C@@H]1C[C@H]1F)N1CC2CNCC2C1 (stereo partly drawn) [Example 10-37]	0.0049 µM
O=C([C@H]1C[C@H]1F)N1CC2CNCC2C1 (stereo partly drawn) [Example 10-38]	0.03 µM
O=C([C@@H]1C[C@@H]1F)N1CC2CNCC2C1 (stereo partly drawn) [Example 10-39]	0.0038 µM
CC(F)(F)C(=O)N1CC2CNCC2C1 (stereo not drawn) [Example 10-40]	0.0098 µM
CC(C)(F)C(=O)N1CC2CNCC2C1 (stereo not drawn) [Example 10-41]	0.0269 µM

molecular target: T3, α7 nAChR subtype (Rattus norvegicus, UniProt Q05941); test: Radioligand binding, [3H]MLA, rat hippocampus membranes; details: read-out: α7 high through-put screening (HTS) result
T3 construct: The hippocampus was removed and placed in 10 volumes (weight:volume) of ice-cold preparative buffer; from tissue; host or cells: rat hippocampus membranes (female Sprague-Dawley)
T3 sequence (Q05941 23-502): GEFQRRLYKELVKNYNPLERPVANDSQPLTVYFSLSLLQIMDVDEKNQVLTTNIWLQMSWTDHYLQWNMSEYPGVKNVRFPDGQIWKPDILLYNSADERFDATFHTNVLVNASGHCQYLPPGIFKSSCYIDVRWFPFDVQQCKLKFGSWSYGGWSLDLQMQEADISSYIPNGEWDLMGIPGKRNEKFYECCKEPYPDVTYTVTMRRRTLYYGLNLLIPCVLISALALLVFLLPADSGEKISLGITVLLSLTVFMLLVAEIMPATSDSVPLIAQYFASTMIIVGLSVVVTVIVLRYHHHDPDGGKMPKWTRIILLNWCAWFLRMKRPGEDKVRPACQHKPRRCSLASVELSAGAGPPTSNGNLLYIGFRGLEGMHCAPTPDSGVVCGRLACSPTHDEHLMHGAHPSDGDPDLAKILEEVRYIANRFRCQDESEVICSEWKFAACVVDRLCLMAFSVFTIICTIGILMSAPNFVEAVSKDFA
Experimental: Rats (female, Sprague-Dawley), weighing 150-250 g, were maintained on a 12 h light/dark cycle and were allowed free access to water and food supplied by PMI Nutrition International, Inc. Animals were anesthetized with 70% CO2, then decapitated. Brains were removed and placed on an ice-cold platform. The hippocampus was removed and placed in 10 volumes (weight:volume) of ice-cold preparative buffer (137 mM NaCl, 10.7 mM KCl, 5.8 mM KH2PO4, 8 mM Na2HPO4, 20 mM HEPES (free acid), 5 mM iodoacetamide, 1.6 mM EDTA, pH 7.4); PMSF, dissolved in methanol to a final concentration of 100 μM, was added and the tissue suspension was homogenized by Polytron. The homogenate was centrifuged at 18,000×g for 20 min at 4° C. and the resulting pellet was re-suspended in 10 volumes of ice-cold water. After 60 min incubation on ice, a new pellet was collected by centrifugation at 18,000×g for 20 min at 4° C. The final pellet was re-suspended in 10 volumes of buffer and stored at −20° C. On the day of the assay, tissue was thawed, centrifuged at 18,000×g for 20 min, and then re-suspended in ice-cold PBS (Dulbecco's Phosphate Buffered Saline, 138 mM NaCl, 2.67 mM KCl, 1.47 mM KH2PO4, 8.1 mM Na2HPO4, 0.9 mM CaCl2, 0.5 mM MgCl2, Invitrogen/Gibco, pH 7.4) to a final concentration of approximately 2 mg protein/mL. Protein was determined by the method of Lowry et al., J. Biol. Chem. 193: 265 (1951), using bovine serum albumin as the standard.
The binding of [^3H]MLA was measured using a modification of the methods of Davies et al., Neuropharmacol. 38: 679 (1999). [^3H]MLA (Specific Activity=25-35 Ci/mmol) was obtained from Tocris. The binding of [^3H]MLA was determined using a 2 h incubation at 21° C. Incubations were conducted in 48-well micro-titre plates and contained about 200 μg of protein per well in a final incubation volume of 300 μL. The incubation buffer was PBS and the final concentration of [^3H]MLA was 5 nM. The binding reaction was terminated by filtration of the protein containing bound ligand onto glass fiber filters (GF/B, Brandel) using a Brandel Tissue Harvester at room temperature. Filters were soaked in de-ionized water containing 0.33% polyethyleneimine to reduce non-specific binding. Each filter was washed with PBS (3×1 mL) at room temperature. Non-specific binding was determined by inclusion of 50 μM non-radioactive MLA in selected wells.
The inhibition of [^3H]MLA binding by test compounds was determined by including seven different concentrations of the test compound in selected wells. Each concentration was replicated in triplicate. IC50 values were estimated as the concentration of compound that inhibited 50 percent of specific [^3H]MLA binding. Inhibition constants (Ki values), reported in nM, were calculated from the IC50 values using the method of Cheng et al., Biochem. Pharmacol. 22: 3099-3108 (1973).

Compound	inhibition at 5 µM
O=C(N1CC2CNCC2C1)C1(O)CC1 (stereo not drawn) [Example 10-22]	< 50%
CC1(C)C(C(=O)N2CC3CNCC3C2)C1(C)C (stereo not drawn) [Example 10-23]	< 50%
N#CC1(C(=O)N2CC3CNCC3C2)CC1 (stereo not drawn) [Example 10-24]	< 50%
O=C(C1CCC1)N1CC2CNCC2C1 (stereo not drawn) [Example 10-25]	< 50%
O=C(C1CC12CCC2)N1CC2CNCC2C1 (stereo not drawn) [Example 10-26]	< 50%
O=C(CO)N1CC2CNCC2C1 (stereo not drawn) [Example 10-27]	< 50%
O=C([C@H]1C[C@H]1F)N1CC2CNCC2C1 (stereo partly drawn) [Example 10-28]	< 50%
O=C([C@H]1C[C@@H]1F)N1CC2CNCC2C1 (stereo partly drawn) [Example 10-29]	< 50%
O=C(CCF)N1CC2CNCC2C1 (stereo not drawn) [Example 10-30]	< 50%
CC(C)C(=O)N1CC2CNCC2C1 (stereo not drawn) [Example 10-31]	< 50%
CC(C)(C)C(=O)N1CC2CNCC2C1 (stereo not drawn) [Example 10-32]	< 50%
O=C(C1CC(F)C1)N1CC2CNCC2C1 (stereo not drawn) [Example 10-33]	< 50%
O=C(CC1CC1)N1CC2CNCC2C1 (stereo not drawn) [Example 10-34]	< 50%
CS(=O)(=O)CC(=O)N1CC2CNCC2C1 (stereo not drawn) [Example 10-35]	< 50%
O=C([C@@H]1C[C@H]1F)N1CC2CNCC2C1 (stereo partly drawn) [Example 10-37]	< 50%
O=C([C@H]1C[C@H]1F)N1CC2CNCC2C1 (stereo partly drawn) [Example 10-38]	< 50%
O=C([C@@H]1C[C@@H]1F)N1CC2CNCC2C1 (stereo partly drawn) [Example 10-39]	< 50%
CC(F)(F)C(=O)N1CC2CNCC2C1 (stereo not drawn) [Example 10-40]	< 50%
CC(C)(F)C(=O)N1CC2CNCC2C1 (stereo not drawn) [Example 10-41]	< 50%

same assay, conditions: α7 Ki

Compound	Ki
O=C([C@H]1C[C@@H]1F)N1CC2CNCC2C1 (stereo partly drawn) [Example 10-36]	25.3 µM
